{
  "source": "patent US10682420B2",
  "about": "“Breast cancer therapy based on hormone receptor status with nanoparticles comprising taxane” (Abraxis BioScience, LLC, priority 2006, dated 2020)",
  "key": {"metastatic breast cancer": {"test_system": "metastatic breast cancer", "conditions": "in vivo", "quoted_text": "Patients were HER-2/neu negative with a life expectancy of greater than 3 months. Patients had no prior chemotherapy for metastatic disease, no prior capecitabine therapy, and no prior fluoropyrimidine therapy and paclitaxel chemotherapy given in an adjuvant setting.\nThe primary endpoint was objective response rate and safety/toxicity, with evaluation performed after every 2 cycles. A secondary endpoint was time to progression."}, "[1]": {"test_system": "metastasis of luciferase-expressing MDA-MB-231 tumor cells to the lymph nodes and lungs", "test": "Abraxane and Avastin on metastasis by luciferase activity", "assay_type": "in vivo, female nude (nu/nu) mice", "protocol": "Abraxane®, either alone or in combination, was administered at 10 mg/kg/day daily for 5 days in two cycles separated by 1 week. Some groups were administered Abraxane® at 10 mg/kg daily for 5 days for only one cycle. […] Mice were sacrificed when the mean tumor volume in the saline-treated control group reached 2000 mm^3. Axillary lymph nodes and both lobes of the lungs were removed from each mouse and cellular extracts were prepared. The presence of MDA-MB-231 cells in these tissues was evaluated by analysis of luciferase activity and was an indicator of metastasis from the primary tumor. Luciferase activity was measured in extracts from 10 lymph nodes and both lobes of the lungs on the day of sacrifice (day 65 after tumor implantation). A value greater than 500 light units per 20 μl lysate was rated as positive for presence of MDA-MB-231 cells and for incidence of metastasis.\nAs used herein, incidence refers to the presence of luciferase activity in tissue from each mouse."}, "[2]": {"test_system": "Luciferase-expressing MDA-MB-231 human breast cancer xenografts", "test": "Abraxane and Avastin on growth of luciferase-expressing MDA-MB-231 xenografts", "assay_type": "in vivo, female nude (nu/nu) mice", "protocol": "Abraxane®, either alone or in combination, was administered at 10 mg/kg/day daily for 5 days in two cycles separated by 1 week. Some groups were administered Abraxane® at 10 mg/kg daily for 5 days for only one cycle. […] Mice were monitored for tumor growth and drug toxicity. Mice were sacrificed when the mean tumor volume in the saline-treated control group reached 2000 mm^3.\nTumor growth inhibition (TGI) was calculated by comparing mean tumor volume of test groups to that of the control group at the last measurement of the control group."}, "cells [3]": {"test_system": "cells", "test": "In vitro cellular cytotoxicity assay", "assay_type": "cell-based", "conditions": "Abraxane 1 to 24 nM", "protocol": "Cells were treated with Abraxane® in a range of concentrations (1 to 24 nM)."}, "cells [4]": {"test_system": "cells", "test": "In vitro clonogenic assay", "assay_type": "cell-based", "protocol": "Cells were treated with saline control, Abraxane® alone, VEGF-A alone, Avastin® alone, Abraxane®+VEGF-A or Abraxane®+Avastin®."}, "[5]": {"test_system": "MDA-MB-435 human breast tumor xenografts", "test": "HKP and Abraxane in MDA-MB-435 xenografts", "assay_type": "in vivo, mice", "conditions": "nineteen weeks of treatment; HKP 250 ug i.v. weekly x16; Abraxane 10 mg/kg/day i.v. x5 days", "text": "The antiangiogenic activity of small synthetic pro-apoptotic peptides composed of two functional domains, one targeting the CD13 receptors (aminopeptidase N) on tumor microvessels and the other disrupting the mitochondrial membrane following internalization have previously been reported. See Nat Med. 1999 September; 5(9): 1032-8.\nMethods: MDA-MB-435 human tumor xenografts were established at an average tumor volume of 100 mm^3, mice were randomized into groups of 12-13 animals and treated with HKP, Abraxane®, or HKP and Abraxane®. HKP was delivered i.v. (250 ug), once a week, for 16 weeks. Abraxane® was administered i.v., daily for 5 days at 10 mg/kg/day only for the first week of treatment. The Abraxane® dose used was substantially below its MTD (30 mg/kg/day, qd×5) to prevent the tumor from complete regression so effect of HKP could be noted."}, "[6]": {"conditions": "mouse, in vivo", "quoted_text": "Methods: Toxicity of Abraxane® and Taxotere® was compared in a dose-ranging study in nude mice given the drugs on a q4d×3 schedule."}},
  "data": [
    {"molecule": "CCCCCOC(=O)Nc1nc(=O)n([C@@H]2O[C@H](C)[C@@H](O)[C@H]2O)cc1F", "note": "[capecitabine]", "values": [
      {"measurement": "main toxicity related to the agent within the combination", "setting": "metastatic breast cancer", "value": "hand foot syndrome"}
    ]},
    {"molecule": "Avastin®: anti-VEGF antibody", "values": [
      {"measurement": "metastasis by luciferase activity in tissue extracts", "setting": "[1]", "value": "did not significantly inhibit metastasis"},
      {"measurement": "% TGI", "setting": "[2]; Avastin Dose 4 mg/kg", "value": 12.56, "unit": "%"},
      {"measurement": "Mean Tumor Volume (mm^3)", "setting": "[2]; Avastin Dose 4 mg/kg twice a week for 6 weeks", "value": "2089 ± 251", "unit": "mm^3"},
      {"measurement": "% Complete Regression", "setting": "[2]; Avastin Dose 4 mg/kg, day 65", "value": 0, "unit": "%"},
      {"measurement": "effect of addition on in vitro cytotoxicity of Abraxane", "setting": "cells [3]", "value": "increased the in vitro cytotoxicity of Abraxane®"},
      {"measurement": "number of colonies formed", "setting": "cells [4]", "value": "slight reduction in the number of colonies formed"}
    ]},
    {"molecule": "CNGRC-GG-d(KLAKLAK)2 [HKP]", "values": [
      {"measurement": "tumor volume", "setting": "[5]", "value": "4,372 mm^3"}
    ]},
    {"molecule": "Taxotere®", "values": [
      {"measurement": "maximum tolerated dose (MTD)", "setting": "[6]", "value": 15, "unit": "mg/kg"}
    ]}
  ]
}
